Non-standard residues stand in square brackets, D forms with d. Residues, ends and D or L forms follow the SMILES beside them. *: point of attachment. 1Nal = N[C@@H](Cc1cccc2ccccc12)C(=O)O; Chg = N[C@H](C(=O)O)C1CCCCC1; Nva = CCC[C@H](N)C(=O)O; Bz = O=C(c1ccccc1)*
How the values were obtained:
[1] = biological target: T1, Solute carrier family 15 member 1 (Homo sapiens, UniProt P46059); assay: (§1) Binding affinity to PEPT1 in human Caco2 cells assessed as inhibition of [14C]Gly-Sar apical uptake after 5 mins by liquid scintillation counting; type: cell-based, Caco-2
T1 sequence (P46059 whole entry): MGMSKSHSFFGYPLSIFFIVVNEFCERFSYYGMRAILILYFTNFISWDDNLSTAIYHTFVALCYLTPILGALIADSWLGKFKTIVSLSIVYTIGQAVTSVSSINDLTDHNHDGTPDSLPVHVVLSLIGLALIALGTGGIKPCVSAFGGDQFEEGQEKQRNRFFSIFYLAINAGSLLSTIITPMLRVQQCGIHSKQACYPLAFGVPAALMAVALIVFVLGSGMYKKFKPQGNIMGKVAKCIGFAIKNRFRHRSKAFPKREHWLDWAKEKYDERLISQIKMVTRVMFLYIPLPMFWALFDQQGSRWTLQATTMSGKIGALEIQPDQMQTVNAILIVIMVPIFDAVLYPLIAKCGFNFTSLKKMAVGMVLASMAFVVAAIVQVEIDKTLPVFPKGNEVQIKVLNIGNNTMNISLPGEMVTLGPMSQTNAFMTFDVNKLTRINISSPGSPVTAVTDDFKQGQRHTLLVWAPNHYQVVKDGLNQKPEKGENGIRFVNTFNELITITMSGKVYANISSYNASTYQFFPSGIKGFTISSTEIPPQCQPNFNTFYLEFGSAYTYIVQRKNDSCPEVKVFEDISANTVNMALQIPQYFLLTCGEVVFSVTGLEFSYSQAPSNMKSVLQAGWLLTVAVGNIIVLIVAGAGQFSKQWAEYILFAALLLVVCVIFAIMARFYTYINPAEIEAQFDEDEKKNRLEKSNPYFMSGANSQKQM

[2] = biological target: T2, Solute carrier family 15 member 1 (Homo sapiens) (UniProt P46059); assay: as §1; type: cell-based; details: Caco-2
T2 sequence (whole entry): T1 sequence (P46059 whole entry)

SMILES | Ki [1] | inhibition [2]
C[C@H](NC(=O)[C@H](COC(=O)c1ccccc1)CC(=O)[C@@H](N)Cc1ccccc1)C(=O)O | 324 µM | Dose-dependent effect
N[C@@H](Cc1ccccc1)C(=O)C[C@@H](COC(=O)c1ccccc1)C(=O)N[C@H](C(=O)O)C1CCCCC1 | – | Dose-dependent effect
N[C@@H](Cc1ccccc1)C(=O)N[C@@H](COC(=O)c1ccccc1)C(=O)N[C@@H](Cc1cccc2ccccc12)C(=O)O (H-Phe-Ser(Bz)-[1Nal]-OH) | – | Dose-dependent effect
C[C@H](NC(=O)[C@H](CO)NC(=O)[C@@H](N)Cc1ccccc1)C(=O)O (H-Phe-Ser-Ala-OH) | 257 µM | Dose-dependent effect

Continued, values first:

Ki [1] | inhibition [2] | SMILES
251 µM | Dose-dependent effect | CCC[C@H](NC(=O)[C@H](COC(=O)c1ccccc1)CC(=O)[C@@H](N)Cc1ccccc1)C(=O)O
– | Dose-dependent effect | N[C@@H](Cc1ccccc1)C(=O)N[C@@H](COC(=O)c1ccccc1)C(=O)N[C@H](C(=O)O)C1CCCCC1 (H-Phe-Ser(Bz)-[Chg]-OH)
– | Dose-dependent effect | CCC[C@H](NC(=O)[C@H](COC(=O)c1ccccc1)NC(=O)[C@@H](N)Cc1ccccc1)C(=O)O (H-Phe-Ser(Bz)-[Nva]-OH)
